The text below walks through data of patent US20080207522A1, “Antimicrobial Peptides” (priority 2004, published 2008).

Test [1] relates to Pseudomonas aeruginosa strain H1001. The test can be described thus: Assay for the cleaved (free, soluble) peptides from cellulose support, luminescence killing assay. The test is classed as cell-based. Set-up: key: 1: Peptides showing stronger killing than Bac2A at a 4 to 8-fold higher dilution; Peptides showing stronger killing compared to that of Bac2A at a 4-fold higher dilution; 3: Peptides similar to Bac2A; 4: Peptides similar to Bac2A at the highest concentration but demonstrating weaker killing at a 2-fold dilution; 5: Peptides giving very weak or no killing at a 2-fold dilution; 6: Peptides with weak killing activity at the highest concentration. Particulars: free (cleaved) peptides, killing relative to Bac2A. In outline:
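Cellulose-synthesized peptides (amidated C-terminus, two β-alanines) cleaved by ammonia, released from punched spots 30 min at 37 °C, then serially diluted. P. aeruginosa H1001 (constitutive fliC::luxCDABE) overnight culture diluted 1:500 in LB or 100 mM Tris pH 7.3/20 mM glucose. Killing followed as time-dependent luminescence loss at 37 °C.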

In test [2] the test system is Pseudomonas aeruginosa strain H1001 fliC::luxCDABE. Nature of the test: Luminescence-based assay for the non-cleaved (bound) peptides on cellulose membranes. The format is cell-based. The conditions noted are these: for Luminescence at the given time in minutes: 0 / Luminescence at the given time in minutes: 20 / Luminescence at the given time in minutes: 40 / Luminescence at the given time in minutes: 60 / Luminescence at the given time in minutes: 80 / Luminescence at the given time in minutes: 100 / Luminescence at the given time in minutes: 120 / Luminescence at the given time in minutes: 180 / Luminescence at the given time in minutes: 240: cellulose-bound peptide; for Luminescence at the given time in minutes: 0: 0 min; for Luminescence at the given time in minutes: 20: 20 min; for Luminescence at the given time in minutes: 40: 40 min; for Luminescence at the given time in minutes: 60: 60 min; for Luminescence at the given time in minutes: 80: 80 min; for Luminescence at the given time in minutes: 100: 100 min; for Luminescence at the given time in minutes: 120: 120 min; for Luminescence at the given time in minutes: 180: 180 min; for Luminescence at the given time in minutes: 240: 240 min; for Activity Class bound: uncleaved cellulose-bound peptides. In outline: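 Peptides remained bound to cellulose spots, which were ethanol-washed and equilibrated in 100 mM Tris pH 7.3. Constitutively lux-expressing P. aeruginosa (OD600 0.35 culture diluted 1:25) added in 10 mM Tris-HCl pH 7.3, 20 mM glucose at 37° C. Luminescence (RLU) followed over 14 time points; peptides binned into six activity classes.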

Turning to VLIRIRRVARAV [Bac008], the “Activity Class Soluble” value in test [1] was determined as 2. In addition, in test [2], the “Luminescence at the given time in minutes: 0” value (“Luminescence … in minutes: 0” below) was 3718 RLU, the “Luminescence at the given time in minutes: 20” value (“Luminescence … in minutes: 20” below) is listed as 6695 RLU, the “Luminescence at the given time in minutes: 40” value (“Luminescence … in minutes: 40” for short) was determined as 5154 RLU and the “Luminescence at the given time in minutes: 60” value (from here on “Luminescence … 60”) was determined as 4426 RLU. Also, in test [2], the “Luminescence at the given time in minutes: 80” value (from here on “Luminescence … in minutes: 80”) is 3671 RLU, the “Luminescence at the given time in minutes: 100” value (from here on “Luminescence … 100”) was 3164 RLU, the “Luminescence at the given time in minutes: 120” value (shortened to “Luminescence … 120”) is reported as 2786 RLU and the “Luminescence at the given time in minutes: 180” value (“Luminescence … 180” below) turned out to be 2703 RLU. In addition, in test [2], the “Luminescence at the given time in minutes: 240” value (from here on “Luminescence … 240”) was found to be 2890 RLU and the “Activity Class bound” value was 5 (Peptides reducing luminescence (lux) values to between 1500 to 3000 after 240 min.).
VVIRAAIRRVRL [Bac038]: in test [1], the “Activity Class Soluble” value amounted to 5. In test [2], the “Luminescence … in minutes: 0” value is on record as 5024 RLU, the “Luminescence … in minutes: 20” value is 7158 RLU, the “Luminescence … in minutes: 40” value came to 5307 RLU and the “Luminescence … 60” value stood at 4676 RLU. Moreover, in test [2], the “Luminescence … in minutes: 80” value was 4112 RLU, the “Luminescence … 100” value amounted to 3323 RLU, the “Luminescence … 120” value came out at 2739 RLU and the “Luminescence … 180” value amounted to 2466 RLU. In addition, in test [2], the “Luminescence … 240” value is given as 2576 RLU and the “Activity Class bound” value is recorded as 5 (Peptides reducing luminescence (lux) values to between 1500 to 3000 after 240 min.).
Regarding VVRALRRIIARV [Bac048], the “Activity Class Soluble” value in test [1] is 4. In test [2], the “Luminescence … in minutes: 0” value is 5001 RLU, the “Luminescence … in minutes: 20” value worked out at 6505 RLU, the “Luminescence … in minutes: 40” value was determined as 5163 RLU and the “Luminescence … 60” value came out at 4406 RLU. In addition, in test [2], the “Luminescence … in minutes: 80” value is on record as 3824 RLU, the “Luminescence … 100” value worked out at 3470 RLU, the “Luminescence … 120” value was found to be 3423 RLU and the “Luminescence … 180” value is on record as 3268 RLU. Moreover, in test [2], the “Luminescence … 240” value came to 3694 RLU and the “Activity Class bound” value is 6 (Peptides having residual luminescence (lux) values greater than 3000 after 240 min.).
